From patent publication US20080280837A1, “Biologically Active Compounds with Anti-Angiogenic Properties” (priority 2004, published 2008)
pKi: −log10 of the molar value.

How the values were obtained:
[1] = biological target: T1, Human SST5 somatostatin receptor (SSTR5) (Homo sapiens, UniProt P35346); test: Filter plate assay for SST5 receptor, displacement of [125I]SST-14; assay type: binding
T1 construct: expressed in transfected cells; host or cells: HEK-293 EBNA
Procedure, shortened: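 HEK-293 EBNA membranes expressing human SST5 (5.5 μg) incubated 60 min at 25 °C with 4 nM [125I]SST-14 and compound in pH 7.5 Tris/EGTA/MgCl2/sucrose buffer. Bound radioactivity collected on PEI-coated glass fiber filters and counted; triplicate 1:5 dilution series from 125 μM, non-specific binding with excess cold ligand.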

SSTR-1 = biological target: T2, SSTR-1 (Homo sapiens, UniProt P30872); test: Radioligand binding screen against somatostatin subtype SSTR-1; conditions: Table 8; read-out: Ki SSTR1
T2 construct: expressed in transfected cells
T2 sequence (P30872 whole entry, species assumed): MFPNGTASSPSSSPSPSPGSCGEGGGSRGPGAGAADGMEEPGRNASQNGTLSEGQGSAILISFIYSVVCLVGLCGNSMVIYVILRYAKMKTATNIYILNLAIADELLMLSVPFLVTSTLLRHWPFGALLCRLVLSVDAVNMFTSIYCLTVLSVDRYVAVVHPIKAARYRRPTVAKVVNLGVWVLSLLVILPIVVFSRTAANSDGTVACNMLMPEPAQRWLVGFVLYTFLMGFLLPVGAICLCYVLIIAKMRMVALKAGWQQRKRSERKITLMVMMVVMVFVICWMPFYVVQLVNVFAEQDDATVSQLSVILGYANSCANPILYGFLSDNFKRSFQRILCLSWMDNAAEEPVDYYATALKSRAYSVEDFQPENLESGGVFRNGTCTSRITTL
Procedure: (§1) Receptor membrane preparations containing the desired cloned receptor (for example cloned human somatostatin receptor subtype 5, SSTR5) and radio-labeled ligand (for example 3-[^125I]iodotyrosyl^11 Somatostatin-14)) were diluted at the concentration required for testing and according to the specific parameters associated with the selected receptor-ligand combination, including receptor Bmax, ligand Kd and any other parameters necessary to optimize the experimental conditions. When tested for competition activity to the reference ligand, “compound 1” was mixed with membrane suspension and the radiolabeled reference ligand (with or without an excess of cold ligand to the receptor for determination of non-specific binding) and incubated at the temperature required by internal standard operating procedures. Following incubation, the binding reaction was stopped by the addition of ice-cold washing buffer and filtered on appropriate filters, which are then counted. Data analysis and curve-fitting was performed with XLfit (IDBS).
(§2) 10 mM solutions of test compounds in 100% DMSO were prepared. ˜160 μl was used for each dilution (20 μl/well in triplicate).
(§3) A 1.25 mM assay stock was prepared by making a 1:8 dilution of the 10 mM solution. (To 30 μL of the 10 mM solution was added 210 μL milli-Q H2O. A 1:5 dilution series in milli-Q H2O was then prepared.
(§4) In primary screening experiments compounds were tested in duplicate for a particular concentration.

SSTR-3 = biological target: T3, SSTR-3 (Homo sapiens, UniProt P32745); test: Radioligand binding screen against somatostatin subtype SSTR-3; conditions: Table 8; read-out: Ki SSTR3
T3 construct: expressed in transfected cells
T3 sequence (P32745 whole entry): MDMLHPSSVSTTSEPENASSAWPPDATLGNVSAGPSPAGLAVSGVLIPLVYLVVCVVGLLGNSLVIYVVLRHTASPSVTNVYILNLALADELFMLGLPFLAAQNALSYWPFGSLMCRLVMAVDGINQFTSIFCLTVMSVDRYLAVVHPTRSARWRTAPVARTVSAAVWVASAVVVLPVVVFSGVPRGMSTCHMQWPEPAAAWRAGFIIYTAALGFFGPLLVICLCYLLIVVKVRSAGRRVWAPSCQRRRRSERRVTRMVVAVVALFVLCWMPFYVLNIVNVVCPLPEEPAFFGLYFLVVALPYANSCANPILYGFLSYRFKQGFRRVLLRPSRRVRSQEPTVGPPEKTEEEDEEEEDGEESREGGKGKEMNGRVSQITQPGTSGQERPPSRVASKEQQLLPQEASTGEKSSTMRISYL
Procedure: as §1, §2, §3, §4

SSTR-4 = biological target: T4, SSTR-4 (Homo sapiens, UniProt P31391); test: Radioligand binding screen against somatostatin subtype SSTR-4 (SST4 assay); conditions: Table 8; read-out: Ki SSTR4
T4 construct: expressed in transfected cells
T4 sequence (P31391 whole entry): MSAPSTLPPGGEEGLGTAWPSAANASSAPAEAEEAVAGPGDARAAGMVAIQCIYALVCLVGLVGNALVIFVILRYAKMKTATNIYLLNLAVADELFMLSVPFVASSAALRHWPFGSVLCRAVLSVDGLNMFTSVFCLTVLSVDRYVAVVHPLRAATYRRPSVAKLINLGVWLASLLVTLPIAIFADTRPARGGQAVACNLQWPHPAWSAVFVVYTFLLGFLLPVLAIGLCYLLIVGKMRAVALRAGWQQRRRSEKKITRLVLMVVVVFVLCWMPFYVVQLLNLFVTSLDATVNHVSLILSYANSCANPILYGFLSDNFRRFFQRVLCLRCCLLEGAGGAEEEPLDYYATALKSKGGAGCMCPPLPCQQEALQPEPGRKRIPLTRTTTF
Procedure: as §1, §2, §3
Assays were performed in triplicate at each concentration within the 1:5 dilution series: 250 μM, 50 μM, 10 μM, […], 0.4 μM, 0.08 μM, 0.016 μM, 0.0032 μM, etc. (for SST4 assay) and 125 μM, 10 μM, 2 μM, 1 μM, 0.5 μM, etc (for SST5 assay).
as §4

SSTR-2 = biological target: T5, SSTR-2 (Homo sapiens, UniProt P30874); test: Radioligand binding screen against somatostatin subtype SSTR-2; conditions: Table 8; read-out: Ki SSTR2
T5 construct: expressed in transfected cells
T5 sequence (P30874 whole entry): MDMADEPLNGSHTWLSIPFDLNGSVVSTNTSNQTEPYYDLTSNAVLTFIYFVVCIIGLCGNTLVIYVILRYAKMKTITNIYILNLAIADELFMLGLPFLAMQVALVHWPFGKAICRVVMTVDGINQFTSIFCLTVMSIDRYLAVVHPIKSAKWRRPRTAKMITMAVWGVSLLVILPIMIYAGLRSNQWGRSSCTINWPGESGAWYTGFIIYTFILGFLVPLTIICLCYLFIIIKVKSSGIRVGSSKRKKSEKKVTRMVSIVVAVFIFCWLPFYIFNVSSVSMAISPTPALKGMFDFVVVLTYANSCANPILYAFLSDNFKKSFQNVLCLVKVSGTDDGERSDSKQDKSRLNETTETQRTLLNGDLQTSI
Procedure: as §1, §2, §3, §4

[2] = tested on: chicken embryo chorioallantoic membrane (CAM) vasculature; test: Early chicken embryo chorioallantoic membrane (earlyCAM) assay; assay type: in vivo; conditions: dose of 10 nmol
Procedure: Vein diameter was included as a measure of vessel growth. Where there was more than one major vein branch, the diameters of both were added together to give a total vein diameter. In the control CAM there were two well developed vein branches of similar diameter. In contrast, in the treated CAM there was a single major vein branch. Total vein diameter is 239 pixels in the control CAM, and only 107 pixels in the treated CAM.
When “compound 1” was applied to the CAM, there were dose responsive reductions in CAM growth and vasculature. The effects on CAM growth and vessel parameters were expressed as pixel measures (Table 1) and also as a percentage of the vehicle treated control group (FIG. 1). Vein lengths were reduced at all dose levels of “compound 1”, both in pixel and percentage terms, with a reduction to 67% of control at 5 nmol (p<0.05). […] When artery and vein lengths were combined to give total vessel length there was a significant reduction at the 5 nmol level (FIG. 1; p<0.05). A strong trend to reduced CAM growth with increasing doses of “compound 1” was also present.

T1 sequence (P35346 whole entry): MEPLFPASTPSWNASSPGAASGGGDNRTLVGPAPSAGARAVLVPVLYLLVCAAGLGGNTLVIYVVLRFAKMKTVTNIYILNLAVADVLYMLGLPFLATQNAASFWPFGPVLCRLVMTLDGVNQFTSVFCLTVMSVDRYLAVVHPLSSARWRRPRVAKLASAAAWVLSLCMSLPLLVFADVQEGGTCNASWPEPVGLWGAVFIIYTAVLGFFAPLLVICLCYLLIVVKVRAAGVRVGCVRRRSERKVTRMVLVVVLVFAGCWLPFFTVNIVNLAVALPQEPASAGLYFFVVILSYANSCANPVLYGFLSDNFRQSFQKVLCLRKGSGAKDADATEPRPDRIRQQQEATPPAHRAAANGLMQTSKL

Molecule | SSTR5 Inhib 0.5 uM % (inhibition of binding of SST-14 to SSTR5) [1] | SSTR5 Inhib 10 uM % (inhibition of binding of SST-14 to SSTR5) [1] | other results
COC[C@H]1OC(OCc2ccc3ccccc3c2)[C@H](NC(=O)CCN)[C@H](OCc2ccc3ccccc3c2)[C@@H]1O (stereo partly shown) [Compound 16] | – | – | pKi ([1]; Table 8): 7.07; pKi (SSTR-1): 5.63; pKi (SSTR-3): 6.36; pKi (SSTR-4): 5.36; pKi (SSTR-2): 6.07
CSC1O[C@H](COCc2ccc(Cl)cc2)[C@@H](O)[C@@H](OCc2ccc3ccccc3c2)[C@H]1NC(=O)CNC(=N)N (stereo partly shown) [Compound 150] | 42% | 76% | –
COC[C@H]1OC(OCc2ccc3ccccc3c2)[C@H](NC(=O)CCNC(=N)N)[C@@H](OCc2ccc3ccccc3c2)[C@@H]1O (stereo partly shown) [Compound 151] | 36% | 76% | –
CO[C@H]1[C@H](O)[C@@H](COCc2ccc(Cl)cc2)OC(OCc2ccc(Cl)cc2)[C@@H]1NC(=O)CCNC(=N)N (stereo partly shown) [Compound 152] | 47% | 76% | –
CSC1O[C@H](COCc2ccc(Cl)cc2)[C@@H](O)[C@@H](OCc2ccc3ccccc3c2)[C@H]1NC(=O)CCCN (stereo partly shown) [Compound 153] | 34% | 76% | –
COC[C@H]1OC(OCc2ccccc2)[C@H](NC(=O)CCCN)[C@H](OCc2ccccc2)[C@@H]1O (stereo partly shown) [Compound 154] | 33% | 76% | –
CSC1O[C@H](COCc2ccccc2)[C@@H](O)[C@@H](OCc2ccc(-c3ccccc3)cc2)[C@H]1NC(=O)CCCNC(=N)N (stereo partly shown) [Compound 155] | 46% | 76% | –
CSC1O[C@H](COCc2ccccc2)[C@@H](O)[C@@H](OCc2ccc3ccccc3c2)[C@H]1NC(=O)CCCN (stereo partly shown) [Compound 156] | 25% | 76% | –
CO[C@H]1[C@H](O)[C@@H](COCc2ccc(-c3ccccc3)cc2)OC(OCc2ccc(-c3ccccc3)cc2)[C@@H]1NC(=O)CCCNC(=N)N (stereo partly shown) [Compound 157] | 20% | 75% | –
CSC1O[C@H](COCc2ccc3ccccc3c2)[C@@H](O)[C@@H](OCc2ccc(Cl)cc2)[C@H]1NC(=O)CCN (stereo partly shown) [Compound 158] | 36% | 75% | –
COC[C@H]1OC(OCc2ccc(Cl)cc2)[C@H](NC(=O)CNC(=N)N)[C@H](OCc2ccc3ccccc3c2)[C@@H]1O (stereo partly shown) [Compound 159] | 31% | 75% | –
COC[C@H]1OC(OCc2ccc(Cl)cc2)[C@H](NC(=O)CCCNC(=N)N)[C@@H](OCc2ccc3ccccc3c2)[C@@H]1O (stereo partly shown) [Compound 160] | 40% | 74% | –
CO[C@H]1[C@H](O)[C@@H](COCc2ccc(-c3ccccc3)cc2)OC(OCc2ccc3ccccc3c2)[C@@H]1NC(=O)CCCN (stereo partly shown) [Compound 161] | 51% | 74% | –
COC[C@H]1OC(OCc2ccccc2)[C@H](NC(=O)CNC(=N)N)[C@H](OCc2ccc3ccccc3c2)[C@@H]1O (stereo partly shown) [Compound 162] | 30% | 74% | –
octeotride [reference compound] | – | – | Effect on the CAM vasculature [2]: did not appear to have any significant effect

The next lines start with results.

SSTR5 Inhib 0.5 uM % (inhibition of binding of SST-14 to SSTR5) [1] | SSTR5 Inhib 10 uM % (inhibition of binding of SST-14 to SSTR5) [1] | Molecule | other results
34% | 73% | COC[C@H]1OC(OCc2ccccc2)[C@H](NC(=O)CCN)[C@H](OCc2ccccc2)[C@@H]1O (stereo partly shown) [Compound 163] | –
39% | 73% | COC[C@H]1OC(OCc2ccc(Cl)cc2)[C@H](NC(=O)CCCN)[C@@H](OCc2ccccc2)[C@@H]1O (stereo partly shown) [Compound 164] | –
37% | 73% | COC[C@H]1OC(OCc2ccccc2)[C@H](NC(=O)CCCNC(=N)N)[C@@H](OCc2ccc(-c3ccccc3)cc2)[C@@H]1O (stereo partly shown) [Compound 165] | –
36% | 73% | COC[C@H]1OC(OCCc2ccccc2)[C@H](NC(=O)CCNC(=N)N)[C@@H](OCc2ccc(Cl)cc2)[C@@H]1O (stereo partly shown) [Compound 166] | –
43% | 73% | CSC1O[C@H](COCc2ccc(Cl)cc2)[C@@H](O)[C@@H](OCc2ccc3ccccc3c2)[C@H]1NC(=O)CN (stereo partly shown) [Compound 167] | –
47% | 72% | COC[C@H]1OC(OCCc2ccccc2)[C@H](NC(=O)CCCNC(=N)N)[C@@H](OCc2ccc(Cl)cc2)[C@@H]1O (stereo partly shown) [Compound 168] | –
27% | 72% | COC1C(O)C(COCc2ccc(-c3ccccc3)cc2)OC(OCc2ccc3ccccc3c2)C1NC(=O)CCNC(=N)N (stereo not shown) [Compound 169] | –
29% | 72% | COC[C@H]1OC(OCc2ccc3ccccc3c2)[C@H](NC(=O)CCNC(=N)N)[C@@H](OCc2ccccc2)[C@@H]1O (stereo partly shown) [Compound 170] | –
44% | 72% | COC1C(O)C(COCc2ccc(-c3ccccc3)cc2)OC(OCc2ccccc2)C1NC(=O)CCCNC(=N)N (stereo not shown) [Compound 171] | –
21% | 72% | COC[C@H]1OC(OCc2ccccc2)[C@H](NC(=O)CCNC(=N)N)[C@@H](OCc2ccc(-c3ccccc3)cc2)[C@@H]1O (stereo partly shown) [Compound 172] | –
47% | 71% | COC1C(O)C(COCc2ccc3ccccc3c2)OC(OCc2ccc(Cl)cc2)C1NC(=O)CNC(=N)N (stereo not shown) [Compound 173] | –
31% | 71% | COC[C@H]1OC(OCc2ccc3ccccc3c2)[C@H](NC(=O)CNC(=N)N)[C@H](OCc2ccc3ccccc3c2)[C@@H]1O (stereo partly shown) [Compound 174] | –
37% | 71% | COC[C@H]1OC(OCc2ccc(Cl)cc2)[C@H](NC(=O)CCCNC(=N)N)[C@H](OCc2ccccc2)[C@@H]1O (stereo partly shown) [Compound 176] | –
47% | 71% | COC1C(O)C(COCc2ccc(-c3ccccc3)cc2)OC(OCc2ccc(Cl)cc2)C1NC(=O)CNC(=N)N (stereo not shown) [Compound 177] | –
39% | 71% | COC[C@H]1OC(OCc2ccc(-c3ccccc3)cc2)[C@H](NC(=O)CCCNC(=N)N)[C@@H](OCc2ccc3ccccc3c2)[C@@H]1O (stereo partly shown) [Compound 178] | –
29% | 70% | CO[C@H]1[C@H](O)[C@@H](COCc2ccc(-c3ccccc3)cc2)OC(OCc2ccc(-c3ccccc3)cc2)[C@@H]1NC(=O)CCCN (stereo partly shown) [Compound 179] | –
